Measured values from US20240317758A1 (Halia Therapeutics, Inc., priority 2021, published 2024).

Tests used:
[1] = target: T1, full-length recombinant human NEK7 (Homo sapiens, UniProt Q8TDX7); test: NEK7 enzymatic assay; format: biochemical; conditions: recombinant human NEK7, casein substrate, radiolabelled ATP
T1 construct: full-length recombinant human NEK7; GST (N); purchased SignalChem NO9-10G; host or cells: Sf9 insect cells (baculovirus)
Experimental: Casein substrate (from bovine milk, hydrolyzed and partially dephosphorylated mixture of α, β and κ caseins, obtained from Sigma Aldrich, catalogue #C4765, diluted in distilled water to a final concentration of 1 mg/mL) and full-length recombinant human NEK7 (expressed by baculovirus in Sf9 insect cells using a N-terminal GST tag, obtained from SignalChem, catalogue #NO9-10G, 0.1 μg/μL) were mixed in assay buffer (20 mM Hepes pH 7.5, 10 mM MgCl2, 1 mM EGTA, 0.02% Brij35, 0.02 mg/ml BSA, 0.1 mM Na3VO4, 2 mM DTT, 1% DMSO). Compounds of interest (serial 3-fold dilution in DMSO from 10 μM to 0.5 nM) or vehicle (1% DMSO) were dispensed into the kinase reaction mixture by Acoustic technology (Echo550; nanoliter range). After incubation at room temperature for 20 minutes, the kinase reaction was initiated by addition of [^33P]-ATP (specific activity 10 μCi/μl) and the mixture was incubated at room temperature for 2 hours. The reaction was then stopped by spotting the reaction mixture on strips of phosphocellulose P81 paper. Following washing, the radioactivity of the P81 paper was measured and kinase activity data were expressed as the percent remaining kinase activity in test samples compared to vehicle reactions. IC50 values and curve fits were obtained using Prism (GraphPad Software).
Casein substrate (from bovine milk, hydrolyzed and partially dephosphorylated mixture of α, β and κ caseins, obtained from Sigma Aldrich, catalogue #C4765, diluted in distilled water to a final concentration of 1 mg/mL, assay concentration 20 μM) and full-length recombinant human Nek7 (expressed by baculovirus in Sf9 insect cells using a N-terminal GST tag, obtained from SignalChem, catalogue #NO9-10G, 0.1 μg/μL, assay concentration 70 nM) were mixed in assay buffer (20 mM Hepes pH 7.5, 10 mM MgCl2, 1 mM EGTA, 0.02% Brij35, 0.02 mg/ml BSA, 0.1 mM […], 2 mM DTT, 1% DMSO). Compounds of interest (in DMSO, serial 3-fold dilution from 10 μM to 0.5 nM) or control (1% DMSO) were dispensed into the kinase reaction mixture by Acoustic technology (Echo550; nanoliter range). After incubation at room temperature for 20 minutes, the kinase reaction was initiated by addition of [^32P]-ATP (Specific activity 10 μCi/μl) and the mixture was incubated at room temperature for 2 hours. The reaction was then stopped by spotting the reaction mixture on strips of phosphocellulose P81 paper. Following washing, the radioactivity of the P81 paper was measured and kinase activity data were expressed as the percent remaining kinase activity in test samples compared to vehicle (dimethyl sulfoxide) reactions. IC50 values and curve fits were obtained using Prism (GraphPad Software).

IL-1β release = IL-1β release assay (THP-1 cells, PMA, LPS, nigericin); format: cell-based; conditions: Homo sapiens, LPS 250 ng/mL, nigericin 20 μM, cleaved IL-1β in media
Experimental: Approximately 1.5 million THP-1 cells were plated in each well of a 6-well TC plate and incubated with 40 nM PMA in RPMI (10% FBS, 1% Penstrep) for 24 hours. The media was then removed and cells were rested in RPMI (10% FBS, 1% Penstrep) for 24 hours after which time the media was removed and cells were pre-treated for 2 hours with various concentrations of compounds of interest (typically serial 3-fold dilution in RPMI+5% FBS, concentrations ranging from 1 μM to 0.5 nM) in RPMI (5% FBS). The media was again removed and cells were incubated with 250 ng/mL LPS and compounds of interest (concentrations as above) in RMPI (5% FBS) for 2 hours. The media was removed for a last time and cells were incubated with 20 μM nigericin and compounds of interest (concentrations as above) in Opti-MEM for 30 minutes. Cell media was then collected and the amount of cleaved IL-1β was determined using a JESS instrument (Protein Simple) and standard protocols. Cleaved Il-1β antibody was obtained from Cell Signaling (catalogue #83186S) and was used at 1:20 dilution in antibody diluent 2. Protein Simple 1× anti-Rabbit HRP secondary antibody was used along with Protein Simple luminol and peroxide for chemiluminescent detection. Primary antibody incubation time was increased from 30 minutes to 60 minutes.

T1 sequence (Q8TDX7 whole entry): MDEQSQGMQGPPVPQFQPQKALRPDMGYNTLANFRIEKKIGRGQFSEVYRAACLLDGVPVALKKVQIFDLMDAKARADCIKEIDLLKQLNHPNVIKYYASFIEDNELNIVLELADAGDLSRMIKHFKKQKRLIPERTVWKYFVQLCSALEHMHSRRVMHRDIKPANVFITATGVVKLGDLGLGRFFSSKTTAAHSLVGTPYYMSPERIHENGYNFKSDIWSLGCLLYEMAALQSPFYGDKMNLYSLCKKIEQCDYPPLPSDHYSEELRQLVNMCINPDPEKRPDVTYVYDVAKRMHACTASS

| Compound | IC50 [1] [nM] | IC50 (IL-1β release) [nM] |
| --- | --- | --- |
| Nc1ncnc2c1c(-c1ccc(NC(=O)Nc3ccc(CN4CCNCC45CC5)c(C(F)(F)F)c3)c(F)c1)cn2C1CC1 [Example I-66, 1-(4-((4,7-diazaspiro[2.5]octan-4-yl)methyl)-3-(trifluoromethyl)phenyl)-3-(4-(4-amino-7-cyclopropyl-7H-pyrrolo[2,3-d]pyrimidin-5-yl)-2-fluorophenyl)urea] | < 100 | 250 to 1000 |
| CN1CCN(C2CC(F)(F)c3cc(NC(=O)Nc4ccc(-c5nn(C6CC6)c6ncnc(N)c56)cc4F)ccc32)CC1 (stereo not shown) [Example I-94, 1-(4-(4-amino-1-cyclopropyl-1H-pyrazolo[3,4-d]pyrimidin-3-yl)-2-fluorophenyl)-3-(3,3-difluoro-1-(4-methylpiperazin-1-yl)-2,3-dihydro-1H-inden-5-yl)urea] | < 100 | 50 to 250 |
| Nc1ncnc2c1c(-c1ccc(NC(=O)Nc3ccc(CN4CCNCC4)c(C(F)(F)F)c3)c(F)c1)cn2C1CC1 [Example I-79, 1-(4-(4-amino-7-cyclopropyl-7H-pyrrolo[2,3-d]pyrimidin-5-yl)-2-fluorophenyl)-3-(4-(piperazin-1-ylmethyl)-3-(trifluoromethyl)phenyl)urea] | < 100 | 50 to 250 |
| CN1CCN(Cc2ccc(NC(=O)Nc3ccc(-c4nn(C5CC5)c5ncnc(N)c45)cc3F)cc2C(F)(F)F)CC1 [Example I-28, 1-(4-(4-amino-1-cyclopropyl-1H-pyrazolo[3,4-d]pyrimidin-3-yl)-2-fluorophenyl)-3-(4-((4-methylpiperazin-1-yl)methyl)-3-(trifluoromethyl)phenyl)urea] | < 100 | < 50 |
| CN1CCC(Oc2ccc(NC(=O)Nc3ccc(-c4cn(C5CC5)c5ncnc(N)c45)cc3F)cc2C(F)(F)F)CC1 [Example I-47, 1-(4-(4-amino-7-cyclopropyl-7H-pyrrolo[2,3-d]pyrimidin-5-yl)-2-fluorophenyl)-3-(4-((1-methylpiperidin-4-yl)oxy)-3-(trifluoromethyl)phenyl)urea] | < 100 | < 50 |
| Nc1ncnc2c1c(-c1ccc(NC(=O)Nc3ccc(OC4CCN(C5COC5)CC4)c(C(F)(F)F)c3)c(F)c1)cn2C1CC1 [Example I-83, 1-(4-(4-amino-7-cyclopropyl-7H-pyrrolo[2,3-d]pyrimidin-5-yl)-2-fluorophenyl)-3-(4-((1-(oxetan-3-yl)piperidin-4-yl)oxy)-3-(trifluoromethyl)phenyl)urea] | 100 to 500 | 50 to 250 |
| Nc1ncnc2c1c(-c1ccc(NC(=O)Nc3ccc(CN4CCOCC4)c(C(F)(F)F)c3)c(F)c1)cn2C1CC1 [Example I-32, 1-(4-(4-amino-7-cyclopropyl-7H-pyrrolo[2,3-d]pyrimidin-5-yl)-2-fluorophenyl)-3-(4-(morpholinomethyl)-3-(trifluoromethyl)phenyl)urea] | – | 250 to 1000 |
| CN1CCN(c2ccc(NC(=O)Nc3ccc(-c4cn(C5CC5)c5ncnc(N)c45)cc3F)cc2C(F)(F)F)CC1 [Example I-3] | – | 250 to 1000 |

More lines, now with the values ahead:

| IC50 [1] [nM] | IC50 (IL-1β release) [nM] | Compound |
| --- | --- | --- |
| 100 to 500 | 250 to 1000 | CC(=O)N1CCC(Oc2ccc(NC(=O)Nc3ccc(-c4cn(C5CC5)c5ncnc(N)c45)cc3F)cc2C(F)(F)F)CC1 [Example I-82, 1-(4-((1-acetylpiperidin-4-yl)oxy)-3-(trifluoromethyl)phenyl)-3-(4-(4-amino-7-cyclopropyl-7H-pyrrolo[2,3-d]pyrimidin-5-yl)-2-fluorophenyl)urea] |
| < 100 | < 50 | CN1CCN(Cc2ccc(NC(=O)Nc3ccc(-c4cn(C5CC5)c5ncnc(N)c45)cc3F)cc2C(F)(F)F)CC1 [Example I-34, 1-(4-(4-amino-7-cyclopropyl-7H-pyrrolo[2,3-d]pyrimidin-5-yl)-2-fluorophenyl)-3-(4-((4-methylpiperazin-1-yl)methyl)-3-(trifluoromethyl)phenyl)urea] |
| – | 50 to 250 | CN1CCN(Cc2ccc(NC(=O)Nc3ccc(-c4nn(C5CC5)c5ccnc(N)c45)cn3)cc2C(F)(F)F)CC1 [Example I-51, 1-(5-(4-amino-1-cyclopropyl-1H-pyrazolo[4,3-c]pyridin-3-yl)pyridin-2-yl)-3-(4-((4-methylpiperazin-1-yl)methyl)-3-(trifluoromethyl)phenyl)urea] |
| < 100 | 50 to 250 | CS(=O)(=O)CCN1CCN(Cc2ccc(NC(=O)Nc3ccc(-c4cn(C5CC5)c5ncnc(N)c45)cc3F)cc2C(F)(F)F)CC1 [Example I-99, 1-(4-(4-amino-7-cyclopropyl-7H-pyrrolo[2,3-d]pyrimidin-5-yl)-2-fluorophenyl)-3-(4-((4-(2-(methylsulfonyl)ethyl)piperazin-1-yl)methyl)-3-(trifluoromethyl)phenyl)urea] |
| – | > 1000 | CN1CCC(Oc2ncc(NC(=O)Nc3ccc(-c4cn(C5CC5)c5ncnc(N)c45)cc3F)cc2C(F)(F)F)CC1 [Example I-61, 1-(4-(4-amino-7-cyclopropyl-7H-pyrrolo[2,3-d]pyrimidin-5-yl)-2-fluorophenyl)-3-(6-((1-methylpiperidin-4-yl)oxy)-5-(trifluoromethyl)pyridin-3-yl)urea] |
| 100 to 500 | > 1000 | CC(=O)N1CCN(Cc2ccc(NC(=O)Nc3ccc(-c4cn(C5CC5)c5ncnc(N)c45)cc3F)cc2C(F)(F)F)CC1 [Example I-80, 1-(4-((4-acetylpiperazin-1-yl)methyl)-3-(trifluoromethyl)phenyl)-3-(4-(4-amino-7-cyclopropyl-7H-pyrrolo[2,3-d]pyrimidin-5-yl)-2-fluorophenyl)urea] |
| < 100 | 50 to 250 | COCCN1CCN(Cc2ccc(NC(=O)Nc3ccc(-c4cn(C5CC5)c5ncnc(N)c45)cc3F)cc2C(F)(F)F)CC1 [Example I-43, 1-(4-(4-amino-7-cyclopropyl-7H-pyrrolo[2,3-d]pyrimidin-5-yl)-2-fluorophenyl)-3-(4-((4-(2-methoxyethyl)piperazin-1-yl)methyl)-3-(trifluoromethyl)phenyl)urea] |
| < 100 | < 50 | CC(C)n1nc(-c2ccc(NC(=O)Nc3ccc(CN4CCN(C)CC4)c(C(F)(F)F)c3)cc2)c2c(N)ncnc21 [Example I-24, 1-(4-(4-amino-1-isopropyl-1H-pyrazolo[3,4-d]pyrimidin-3-yl)phenyl)-3-(4-((4-methylpiperazin-1-yl)methyl)-3-(trifluoromethyl)phenyl)urea] |
| < 100 | < 50 | CC(C)N1CCN(Cc2ccc(NC(=O)Nc3ccc(-c4cn(C5CC5)c5ncnc(N)c45)cc3F)cc2C(F)(F)F)CC1 [Example I-63, 1-(4-(4-amino-7-cyclopropyl-7H-pyrrolo[2,3-d]pyrimidin-5-yl)-2-fluorophenyl)-3-(4-((4-isopropylpiperazin-1-yl)methyl)-3-(trifluoromethyl)phenyl)urea] |
| < 100 | < 50 | CN1CCN(Cc2ccc(NC(=O)Nc3ccc(-c4nn(C5CC5)c5ccnc(N)c45)cc3F)cc2C(F)(F)F)CC1 [Example I-31, 1-(4-(4-amino-1-cyclopropyl-1H-pyrazolo[4,3-c]pyridin-3-yl)-2-fluorophenyl)-3-(4-((4-methylpiperazin-1-yl)methyl)-3-(trifluoromethyl)phenyl)urea] |
| < 100 | > 1000 | CN1CCC(n2cc(-c3ccc(NC(=O)Nc4ccc(CN5CCN(C)CC5)c(C(F)(F)F)c4)c(F)c3)c3c(N)ncnc32)CC1 [Example I-21, 1-(4-(4-amino-7-(1-methylpiperidin-4-yl)-7H-pyrrolo[2,3-d]pyrimidin-5-yl)-2-fluorophenyl)-3-(4-((4-methylpiperazin-1-yl)methyl)-3-(trifluoromethyl)phenyl)urea] |
